Test system: potassium ion channel current of the DRG neurons
Type: cell-based, SD rats
Details: 5 mM

Nc1ccncc1 [4AP, 4-aminopyridine]
Current inhibition rate: 0.338
Current recorded after loading: 0.9766 nA
